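Where inhibition never reached the appropriate level, the endpoint shown equals the highest concentration tested. Otherwise, values were interpolated linearly from a five-concentration, 48-hour dose response in 96-well plates. TGI denotes the concentration required for complete inhibition of growth.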
Key:
Experiment in all cases: NCI anticancer screen, dose series, 48 h
[1] = system: 786-0 renal
[2] = system: A498 renal
[3] = system: A549 NSCLC
[4] = system: ACHN renal
[5] = system: BT-549 breast
[6] = system: CCRF-CEM leukemia
[7] = system: COLO 205 colon
[8] = system: DU-145 prostate
[9] = system: EKVX NSCLC
[10] = system: HCC-2998 colon
[11] = system: HCT-116 colon
[12] = system: HCT-15 colon
[13] = system: HL-60(TB) leukemia
[14] = system: HOP-62 NSCLC
[15] = system: HOP-92 NSCLC
[16] = system: HS 578T breast
[17] = system: HT29 colon
[18] = system: IGROV1 ovarian
[19] = system: K-562 leukemia
[20] = system: KM12 colon
[21] = system: M14 melanoma
[22] = system: MALME-3M melanoma
[23] = system: MDA-MB-231 breast
[24] = system: MDA-MB-435
[25] = system: MDA-N
[26] = system: MOLT-4 leukemia
[27] = system: NCI-H226 lung
[28] = system: NCI-H23 lung
[29] = system: NCI-H460 lung
[30] = system: NCI-H522 lung
[31] = system: NCI/ADR-RES ovarian
[32] = system: OVCAR-3 ovarian
[33] = system: OVCAR-4 ovarian
[34] = system: OVCAR-5 ovarian
[35] = system: OVCAR-8 ovarian
[36] = system: PC-3 prostate
[37] = system: RPMI-8226 leukemia
[38] = system: RXF 393 renal
[39] = system: SF-268 CNS
[40] = system: SF-295 CNS
[41] = system: SF-539 CNS
[42] = system: SK-MEL-2 melanoma
[43] = system: SK-MEL-28 melanoma
[44] = system: SK-MEL-5 melanoma
[45] = system: SK-OV-3 ovarian
[46] = system: SN12C renal
[47] = system: SNB-19 CNS
[48] = system: SW-620 colon
[49] = system: T-47D breast
[50] = system: TK-10 renal
[51] = system: U251 CNS
[52] = system: UACC-257 melanoma
[53] = system: UACC-62 melanoma
[54] = system: UO-31 renal
[55] = system: CAKI-1 renal
[56] = system: LOX IMVI melanoma
[57] = system: MCF7 breast
[58] = system: SNB-75 CNS
[59] = system: SR leukemia

In the case of CC(C)(Cl)C(Br)CCC(C)(Br)C(Br)CBr (configuration not stated), the TGI [1] is reported as 31.2 µM, the TGI [2] is reported as 34.8 µM and the TGI [3] is reported as 92.2 µM. For the same molecule, the TGI [4] was 31.9 µM, the TGI [5] was 42.8 µM and the TGI [6] was 28.7 µM. It also gave a TGI [7] of 31 µM, a TGI [8] of 39.2 µM and a TGI [9] of 70.3 µM. It also gave a TGI [10] of 25.8 µM, a TGI [11] of 29.5 µM and a TGI [12] of 42.6 µM. The TGI [13] was 36.5 µM, the TGI [14] was 32.5 µM and the TGI [15] was 48.6 µM. For the same molecule, the TGI [16] was 46.5 µM, the TGI [17] was 29.2 µM and the TGI [18] was 39.9 µM. For the same molecule, the TGI [19] was greater than 100 µM, the TGI [20] was 36 µM and the TGI [21] was 33.7 µM. It also gave a TGI [22] of 31.8 µM, a TGI [23] of 25.9 µM and a TGI [24] of 35.3 µM. It also gave a TGI [25] of 43.1 µM, a TGI [26] of 53.4 µM and a TGI [27] of 39.3 µM. It also gave a TGI [28] of 38.6 µM, a TGI [29] of 31.1 µM and a TGI [30] of 26.5 µM. For the same molecule, the TGI [31] was 31.6 µM, the TGI [32] was 29.9 µM and the TGI [33] was 37.5 µM. For the same molecule, the TGI [34] was 31.2 µM, the TGI [35] was 29.7 µM and the TGI [36] was 64.7 µM. It also gave a TGI [37] of 40.1 µM, a TGI [38] of 38 µM and a TGI [39] of 32.6 µM. It also gave a TGI [40] of 32.8 µM, a TGI [41] of 29 µM and a TGI [42] of 30.3 µM. The TGI [43] was 33.6 µM, the TGI [44] was 28 µM and the TGI [45] was greater than 100 µM. It also gave a TGI [46] of 35.8 µM, a TGI [47] of 54.6 µM and a TGI [48] of 31.4 µM. It also gave a TGI [49] of 46.4 µM, a TGI [50] of 62.2 µM and a TGI [51] of 30.1 µM. It also gave a TGI [52] of 37.5 µM, a TGI [53] of 48.3 µM and a TGI [54] of 36.1 µM.

Molecule CCOC(=O)C(/C=N\C(=S)Nc1c(CC)cccc1C(C)(C)C)=C(/O)c1ccccc1 has a TGI [1] greater than 100 µM, a TGI [2] greater than 100 µM and a TGI [3] greater than 100 µM. For the same molecule, the TGI [4] was greater than 100 µM, the TGI [55] was greater than 100 µM and the TGI [6] was greater than 100 µM. It also gave a TGI [7] greater than 100 µM, a TGI [8] greater than 100 µM and a TGI [9] greater than 100 µM. The TGI [10] was greater than 100 µM, the TGI [11] was greater than 100 µM and the TGI [12] was greater than 100 µM. It also gave a TGI [13] greater than 100 µM, a TGI [14] greater than 100 µM and a TGI [16] of 87.5 µM. The TGI [17] was greater than 100 µM, the TGI [18] was greater than 100 µM and the TGI [19] was greater than 100 µM. It also gave a TGI [20] greater than 100 µM, a TGI [56] greater than 100 µM and a TGI [21] greater than 100 µM. The TGI [22] was greater than 100 µM, the TGI [57] was greater than 100 µM and the TGI [23] was greater than 100 µM. It also gave a TGI [24] greater than 100 µM, a TGI [25] greater than 100 µM and a TGI [26] greater than 100 µM. For the same molecule, the TGI [27] was greater than 100 µM, the TGI [28] was greater than 100 µM and the TGI [30] was greater than 100 µM. It also gave a TGI [31] greater than 100 µM, a TGI [33] greater than 100 µM and a TGI [34] greater than 100 µM. The TGI [35] was greater than 100 µM, the TGI [36] was greater than 100 µM and the TGI [37] was greater than 100 µM. The TGI [38] was greater than 100 µM, the TGI [39] was greater than 100 µM and the TGI [40] was greater than 100 µM. It also gave a TGI [41] greater than 100 µM, a TGI [42] greater than 100 µM and a TGI [43] greater than 100 µM. The TGI [44] was greater than 100 µM, the TGI [45] was greater than 100 µM and the TGI [46] was greater than 100 µM. It also gave a TGI [58] greater than 100 µM, a TGI [59] greater than 100 µM and a TGI [48] greater than 100 µM. It also gave a TGI [49] greater than 100 µM, a TGI [51] greater than 100 µM and a TGI [52] greater than 100 µM. For the same molecule, the TGI [53] was greater than 100 µM and the TGI [54] was greater than 100 µM.

Work on CCOCCOC(=O)C1CCC(=O)N1CN(C(C)=O)c1cc(OC)ccc1OC (configuration not stated) yielded a TGI [1] greater than 100 µM, a TGI [2] greater than 100 µM and a TGI [3] greater than 100 µM. The TGI [4] was greater than 100 µM, the TGI [55] was greater than 100 µM and the TGI [7] was greater than 100 µM. The TGI [8] was greater than 100 µM, the TGI [9] was greater than 100 µM and the TGI [11] was greater than 100 µM. For the same molecule, the TGI [12] was greater than 100 µM, the TGI [14] was greater than 100 µM and the TGI [15] was greater than 100 µM. It also gave a TGI [16] greater than 100 µM, a TGI [17] greater than 100 µM and a TGI [18] greater than 100 µM. For the same molecule, the TGI [19] was greater than 100 µM, the TGI [20] was greater than 100 µM and the TGI [56] was greater than 100 µM. The TGI [21] was greater than 100 µM, the TGI [22] was greater than 100 µM and the TGI [57] was greater than 100 µM. The TGI [23] was greater than 100 µM, the TGI [24] was greater than 100 µM and the TGI [25] was greater than 100 µM. The TGI [26] was greater than 100 µM, the TGI [27] was greater than 100 µM and the TGI [28] was greater than 100 µM. For the same molecule, the TGI [29] was greater than 100 µM, the TGI [30] was greater than 100 µM and the TGI [31] was greater than 100 µM. For the same molecule, the TGI [32] was greater than 100 µM, the TGI [33] was greater than 100 µM and the TGI [34] was greater than 100 µM. For the same molecule, the TGI [35] was greater than 100 µM, the TGI [36] was greater than 100 µM and the TGI [37] was greater than 100 µM. For the same molecule, the TGI [38] was greater than 100 µM, the TGI [39] was greater than 100 µM and the TGI [40] was greater than 100 µM. The TGI [41] was greater than 100 µM, the TGI [42] was greater than 100 µM and the TGI [43] was greater than 100 µM. For the same molecule, the TGI [44] was greater than 100 µM, the TGI [45] was greater than 100 µM and the TGI [46] was greater than 100 µM. It also gave a TGI [47] greater than 100 µM, a TGI [58] greater than 100 µM and a TGI [59] greater than 100 µM. For the same molecule, the TGI [48] was greater than 100 µM, the TGI [49] was greater than 100 µM and the TGI [50] was greater than 100 µM. The TGI [51] was greater than 100 µM, the TGI [52] was greater than 100 µM and the TGI [53] was greater than 100 µM. For the same molecule, the TGI [54] was greater than 100 µM.
